Reference: patent US9169290B2, “Peptides and their use” (priority 2007, dated 2015)
In brackets after ≈: the same amount, converted by molar mass. Like-named read-outs stand apart in the source and are kept apart here.

How the values were obtained:
C. albicans = assay type: cell-based, Candida albicans
Procedure: (§1) Broth Dilution Antifungal Susceptibility Testing
(§2) The sensitivity of relevant fungal strains to the peptides was determined using Clinical Laboratory Standard Institute (CLSI; formerly NCCLS) Approved Standards.

C. krusei = assay type: cell-based, Candida krusei
Procedure: as §1, §2

C. parapsilosis = assay type: cell-based, Candida parapsilosis
Procedure: as §1
The sensitivity of relevant fungal strains to the peptides was determined using Clinical Laboratory Standard Institute (CLSI; formerly NCCLS) Approved Standards. Fungal susceptibility was tested using “Reference Method for Broth Dilution Antifungal Susceptibility Testing of Filamentous Fungi; […];

C. tropicalis = assay: Broth dilution antifungal susceptibility testing of yeasts (CLSI M27-A), MIC; assay type: cell-based, Candida tropicalis
Procedure: as §1
(§3) The sensitivity of relevant fungal strains to the peptides was determined using Clinical Laboratory Standard Institute (CLSI; formerly NCCLS) Approved Standards. Fungal susceptibility was tested using “Reference Method for Broth Dilution Antifungal Susceptibility Testing of Filamentous Fungi; Approved Standard M38-P”, and yeast susceptibility was tested using “Reference Method for Broth Dilution Antifungal Susceptibility Testing of Yeasts; Approved Standard—Second Edition M27-A”.

C. glabrata = assay: as above; assay type: cell-based, Candida glabrata
Procedure: as §1, §3

Cryptococcus neoformans = assay: as above; assay type: cell-based; conditions: Cryptococcus neoformans strain DSM11959
Procedure: as §1, §3

A. nidulans = assay: Broth dilution antifungal susceptibility testing of filamentous fungi (CLSI M38-P), MIC; assay type: cell-based, Aspergillus nidulans
Procedure: as §1, §3

A. niger = assay: as above; assay type: cell-based, Aspergillus niger
Procedure: as §1, §3

Alternaria spp. = assay: Broth dilution antifungal susceptibility testing, MIC; assay type: cell-based; conditions: Alternaria spp. strain DM 2006 1218a
Procedure: as §1, §3

Fusarium solani = assay: as above; assay type: cell-based; conditions: Fusarium solani strain NCPF2877
Procedure: as §1, §3

Penicillium spp. = assay: as above; assay type: cell-based; conditions: Penicillium spp. strain DM 2006 1285b
Procedure: as §1, §3

[1] = system: Scopulariopsis brevicaulis; assay: as above; assay type: cell-based; conditions: Scopulariopsis brevicaulis strain DM 2006 1025
Procedure: as §1, §3

With N=C(N)NCCC[C@@H](N)C(=O)N[C@H](CCCNC(=N)N)C(=O)N[C@H](CCCNC(=N)N)C(=O)N[C@H](CCCNC(=N)N)C(=O)N[C@H](CCCNC(=N)N)C(=O)N[C@H](CCCNC(=N)N)C(=O)N[C@H](CCCNC(=N)N)C(=O)N[C@H](CCCNC(=N)N)C(=O)N[C@H](CCCNC(=N)N)C(=O)N[C@H](CCCNC(=N)N)C(=O)N[C@H](CCCNC(=N)N)C(=O)N[C@H](CCCNC(=N)N)C(=O)N[C@H](CCCNC(=N)N)C(=O)O [NP339, dRdRdRdRdRdRdRdRdRdRdRdRdR] the “MIC, Candida albicans ATCC90028” value (C. albicans) was 2 µM (≈ 4.1 µg/mL), the MIC (C. krusei; C. krusei strain AM2005/0492) was 1 µM (≈ 2.05 µg/mL) and the MIC (C. krusei; C. krusei strain AM2005/0494) was 1 µM (≈ 2.05 µg/mL). The MIC (C. krusei; C. krusei strain AM2005/0496) was 2 µM (≈ 4.1 µg/mL), the MIC (C. krusei; C. krusei strain AM2005/0498) was 1 µM (≈ 2.05 µg/mL) and the MIC (C. krusei; C. krusei strain AM2005/0525) was 2 µM (≈ 4.1 µg/mL). For the same compound, the MIC (C. krusei; C. krusei strain AM2005/0531) was 2 µM (≈ 4.1 µg/mL), the MIC (C. krusei; C. krusei strain AM2006/0127) was 1 µM (≈ 2.05 µg/mL) and the MIC (C. krusei; C. krusei strain AM2007/0102) was 2 µM (≈ 4.1 µg/mL). The MIC (C. krusei; C. krusei strain AM2007/0103) was 2 µM (≈ 4.1 µg/mL), the MIC (C. krusei; C. krusei strain AM2007/0104) was 1 µM (≈ 2.05 µg/mL) and the MIC (C. krusei; C. krusei strain AM2007/0105) was 1 µM (≈ 2.05 µg/mL). For the same compound, the MIC (C. krusei; C. krusei strain AM2007/0106) was 1 µM (≈ 2.05 µg/mL), the MIC (C. krusei; C. krusei strain AM2007/0107) was 1 µM (≈ 2.05 µg/mL) and the MIC (C. krusei; C. krusei strain AM2007/0109) was 1 µM (≈ 2.05 µg/mL). The MIC (C. krusei; C. krusei strain AM30274.04) was 2 µM (≈ 4.1 µg/mL), the MIC (C. krusei; C. krusei strain AM30308.03.05) was 1 µM (≈ 2.05 µg/mL) and the MIC (C. krusei; C. krusei strain AM30332.04.05) was 2 µM (≈ 4.1 µg/mL). It also gave an MIC (C. krusei; C. krusei strain AM30455.04.05) of 1 µM (≈ 2.05 µg/mL), an MIC (C. krusei; C. krusei strain AM31194/04/05) of 2 µM (≈ 4.1 µg/mL) and an MIC (C. krusei; C. krusei strain AM31300/04/05) of 2 µM (≈ 4.1 µg/mL). It also gave an MIC (C. krusei; C. krusei strain ATCC6258) of 2 µM (≈ 4.1 µg/mL), an MIC (C. parapsilosis; C. parapsilosis strain AM2004/0133) of 1 to 2 µM and an MIC (C. parapsilosis; C. parapsilosis strain AM2005-0112) of 2 µM (≈ 4.1 µg/mL). For the same compound, the MIC (C. parapsilosis; C. parapsilosis strain AM2005/0233) was 8 µM (≈ 16.4 µg/mL), the MIC (C. parapsilosis; C. parapsilosis strain AM2005/0237) was 1 µM (≈ 2.05 µg/mL) and the MIC (C. parapsilosis; C. parapsilosis strain AM2005/0238) was 16 µM (≈ 32.8 µg/mL). The MIC (C. parapsilosis; C. parapsilosis strain AM2005/0239) was 1 µM (≈ 2.05 µg/mL), the MIC (C. parapsilosis; C. parapsilosis strain AM2005/0242) was 4 µM (≈ 8.19 µg/mL) and the MIC (C. parapsilosis; C. parapsilosis strain AM2005/0337) was 2 to 16 µM. For the same compound, the MIC (C. parapsilosis; C. parapsilosis strain AM2007/0131) was 4 to 32 µM, the MIC (C. parapsilosis; C. parapsilosis strain AM2007/0132) was 16 to 32 µM and the MIC (C. parapsilosis; C. parapsilosis strain AM2007/0134) was 4 to 32 µM. It also gave an MIC (C. parapsilosis; C. parapsilosis strain AM2007/0135) of 1 to 2 µM, an MIC (C. parapsilosis; C. parapsilosis strain AM2007/0136) of 2 µM (≈ 4.1 µg/mL) and an MIC (C. parapsilosis; C. parapsilosis strain AM2007/0137) of 8 to 32 µM. The MIC (C. parapsilosis; C. parapsilosis strain AM2007/0138) was 16 to 32 µM, the MIC (C. parapsilosis; C. parapsilosis strain AM2007/0139) was 8 µM (≈ 16.4 µg/mL) and the MIC (C. parapsilosis; C. parapsilosis strain ATCC22019) was 1 to 2 µM. For the same compound, the MIC (C. parapsilosis; C. parapsilosis strain ATCC90018) was 2 µM (≈ 4.1 µg/mL), the MIC (C. tropicalis; C. tropicalis strain AM2004/0087) was 1 µM (≈ 2.05 µg/mL) and the MIC (C. tropicalis; C. tropicalis strain AM2004/0088) was 1 µM (≈ 2.05 µg/mL). The MIC (C. tropicalis; C. tropicalis strain AM2004/0089) was 1 µM (≈ 2.05 µg/mL), the MIC (C. tropicalis; C. tropicalis strain AM2004/0090) was 1 µM (≈ 2.05 µg/mL) and the MIC (C. tropicalis; C. tropicalis strain AM2004/0091) was 1 µM (≈ 2.05 µg/mL). For the same compound, the MIC (C. tropicalis; C. tropicalis strain ATCC750) was 2 µM (≈ 4.1 µg/mL), the MIC (C. glabrata; C. glabrata strain AM2002/0085) was 2 µM (≈ 4.1 µg/mL) and the MIC (C. glabrata; C. glabrata strain AM2002/0088) was 1 µM (≈ 2.05 µg/mL). It also gave an MIC (C. glabrata; C. glabrata strain AM2007/0113) of 2 µM (≈ 4.1 µg/mL), an MIC (C. glabrata; C. glabrata strain AM2007/0114) of 1 µM (≈ 2.05 µg/mL) and an MIC (C. glabrata; C. glabrata strain AM2007/0115) of 2 µM (≈ 4.1 µg/mL). For the same compound, the MIC (C. glabrata; C. glabrata strain AM2007/0116) was 1 µM (≈ 2.05 µg/mL), the MIC (C. glabrata; C. glabrata strain AM2007/0117) was 1 µM (≈ 2.05 µg/mL) and the MIC (C. glabrata; C. glabrata strain AM2007/0118) was 2 µM (≈ 4.1 µg/mL). It also gave an MIC (C. glabrata; C. glabrata strain AM2007/0119) of 1 µM (≈ 2.05 µg/mL), an MIC (C. glabrata; C. glabrata strain AM2007/0120) of 2 µM (≈ 4.1 µg/mL) and an MIC (C. glabrata; C. glabrata strain AM2007/0121) of 1 µM (≈ 2.05 µg/mL). It also gave an MIC (C. glabrata; C. glabrata strain AM2007/0122) of 1 µM (≈ 2.05 µg/mL), an MIC (C. glabrata; C. glabrata strain AM2007/0123) of 1 µM (≈ 2.05 µg/mL) and an MIC (C. glabrata; C. glabrata strain AM2007/0124) of 1 µM (≈ 2.05 µg/mL). It also gave an MIC (C. glabrata; C. glabrata strain AM2007/0125) of 2 µM (≈ 4.1 µg/mL), an MIC (C. glabrata; C. glabrata strain AM2007/0126) of 1 µM (≈ 2.05 µg/mL) and an MIC (C. glabrata; C. glabrata strain AM2007/0127) of 1 µM (≈ 2.05 µg/mL). The MIC (C. glabrata; C. glabrata strain AM2007/0128) was 1 µM (≈ 2.05 µg/mL), the MIC (C. glabrata; C. glabrata strain AM2007/0129) was 1 µM (≈ 2.05 µg/mL) and the MIC (C. glabrata; C. glabrata strain AM2007/0130) was 1 µM (≈ 2.05 µg/mL). For the same compound, the MIC (Cryptococcus neoformans) was 1 µM (≈ 2.05 µg/mL), the MIC (A. nidulans; A nidulans strain AFG97-71) was 4000 µM (≈ 8190 µg/mL) and the MIC (A. nidulans; A nidulans strain AFG99-247) was 256 µM (≈ 524 µg/mL). For the same compound, the MIC (A. nidulans; A nidulans strain AFG99-1373) was 62.5 µM (≈ 128 µg/mL), the MIC (A. nidulans; A nidulans strain NCPF2691) was 3.9 µM (≈ 7.99 µg/mL) and the MIC (A. nidulans; A. nidulans strain AFG00-676) was 1000 µM (≈ 2050 µg/mL). It also gave an MIC (A. nidulans; A. nidulans strain AFG01-835) of 1000 µM (≈ 2050 µg/mL), an MIC (A. nidulans; A. nidulans strain AFG01-1716) of 62.5 µM (≈ 128 µg/mL) and an MIC (A. nidulans; A. nidulans strain AFG97-453) of 62.5 µM (≈ 128 µg/mL). It also gave an MIC (A. nidulans; A. nidulans strain AFG 98-281) of 62.5 µM (≈ 128 µg/mL), an MIC (A. nidulans; A. nidulans strain AFG99-2387) of 62.5 µM (≈ 128 µg/mL) and an MIC (A. nidulans; A. nidulans strain AFG9811-35) of 125 µM (≈ 256 µg/mL). The MIC (A. nidulans; A. nidulans strain AFGR2952) was 62.5 µM (≈ 128 µg/mL), the MIC (A. niger; A. niger strain AFG 01-60) was 62.5 µM (≈ 128 µg/mL) and the MIC (A. niger; A. niger strain AFG 01-237) was 1000 µM (≈ 2050 µg/mL). The MIC (A. niger; A. niger strain AFG 01-381) was 62.5 µM (≈ 128 µg/mL), the MIC (A. niger; A. niger strain AFG 01-385) was 1000 µM (≈ 2050 µg/mL) and the MIC (A. niger; A. niger strain AFG 01-423) was 62.5 µM (≈ 128 µg/mL). It also gave an MIC (A. niger; A. niger strain AFG 01-783) of 62.5 µM (≈ 128 µg/mL), an MIC (A. niger; A. niger strain AFG 01-809) of 62.5 µM (≈ 128 µg/mL) and an MIC (A. niger; A. niger strain AFG 01-1237) of 62.5 µM (≈ 128 µg/mL). The MIC (A. niger; A. niger strain AFG 01-1286) was 62.5 µM (≈ 128 µg/mL), the MIC (A. niger; A. niger strain AFG 01-1424) was 62.5 µM (≈ 128 µg/mL) and the MIC (A. niger; A. niger strain AFG 01-1494) was 62.5 µM (≈ 128 µg/mL). The MIC (A. niger; A. niger strain AFG 01-2103) was 62.5 µM (≈ 128 µg/mL), the MIC (A. niger; A. niger strain AFG 01-2112) was 62.5 µM (≈ 128 µg/mL) and the MIC (A. niger; A. niger strain AFG 01-2267) was 62.5 µM (≈ 128 µg/mL). The MIC (A. niger; A. niger strain AFG 01-2620) was >4000 µM, the MIC (A. niger; A. niger strain AFG 01-2840) was 62.5 µM (≈ 128 µg/mL) and the MIC (A. niger; A. niger strain AFG J940179) was 62.5 µM (≈ 128 µg/mL). It also gave an MIC (A. niger; A. niger strain AFG J970467) of 62.5 µM (≈ 128 µg/mL), an MIC (A. niger; A. niger strain NCPF2022) of 7.8 µM (≈ 16 µg/mL) and an MIC (Alternaria spp.) of 7.8 µM (≈ 16 µg/mL). For the same compound, the MIC (Fusarium solani) was 3.9 µM (≈ 7.99 µg/mL), the MIC (Penicillium spp.) was 15.6 µM (≈ 32 µg/mL) and the MIC [1] was 1 µM (≈ 2.05 µg/mL).
